# Values quoted from earlier work, collected in patent publication US20040048805A1, “Antilipemic agents” (priority 2003, published 2004).
# System: HMG-CoA reductase
# Details: oral administration to rabbits; Arterioscler Thromb Vasc Biol. 1998; 18: 1304
smiles,measurement,value
"CCC(CC)CC(=O)c1c(C(=O)OC)c(-c2ccc(OC)c(OC)c2)c2c(OC)c(OC)c(OC)cc2c1O [compound A, methyl 1-(3,4-dimethoxyphenyl)-3-(3-ethylvaleryl)-4-hydroxy-6,7,8-trimethoxy-2-naphtoate]",HMG-CoA reductase activity in the liver,increased the HMG-CoA reductase activity in the liver
